Tests used:
Assay type in all cases: biochemical
[1] = target: T1, Recombinant human AKR1C3 (17β-HSD5) protein (Homo sapiens, UniProt P42330); experiment: Inhibition of AKR1C3 (17β-hydroxysteroid dehydrogenase type 5) enzyme, fluorescence assay; conditions: inhibitor at 500 nM
T1 construct: made in house; host or cells: E. coli
T1 sequence (P42330 1-323): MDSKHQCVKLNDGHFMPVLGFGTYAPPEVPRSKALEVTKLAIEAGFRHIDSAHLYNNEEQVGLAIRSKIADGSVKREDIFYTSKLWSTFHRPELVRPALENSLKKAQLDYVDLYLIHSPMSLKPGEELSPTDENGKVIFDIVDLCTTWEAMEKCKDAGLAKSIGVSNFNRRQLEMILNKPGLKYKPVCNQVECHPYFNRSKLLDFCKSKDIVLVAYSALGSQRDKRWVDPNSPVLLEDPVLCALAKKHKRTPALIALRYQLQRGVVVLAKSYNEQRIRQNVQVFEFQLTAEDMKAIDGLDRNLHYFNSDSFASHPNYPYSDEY
Method in brief: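 E. coli-expressed human AKR1C3 (27 nM) in 20 mM KH2PO4, 1 mM EDTA, pH 7.4, with 1 μM pyranoquinolinone ketone substrate, 1 mM NADPH and inhibitor at 500 nM, 1% DMSO, 60–120 min at RT. Fluorescent alcohol product (ex 420/em 510 nm) quantified against standards; inhibition derived from conversion percentages.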

[2] = target: T2, Recombinant human aldo-keto reductase family 1 member C2 (AKR1C2) protein (Homo sapiens, UniProt P52895); experiment: Inhibition of the aldo-keto reductase family 1 member C2, 3H-dihydrotestosterone conversion; conditions: inhibitor at 10 μM
T2 construct: made in house; host or cells: Sf-9 insect cells (baculovirus)
T2 sequence (P52895 1-323): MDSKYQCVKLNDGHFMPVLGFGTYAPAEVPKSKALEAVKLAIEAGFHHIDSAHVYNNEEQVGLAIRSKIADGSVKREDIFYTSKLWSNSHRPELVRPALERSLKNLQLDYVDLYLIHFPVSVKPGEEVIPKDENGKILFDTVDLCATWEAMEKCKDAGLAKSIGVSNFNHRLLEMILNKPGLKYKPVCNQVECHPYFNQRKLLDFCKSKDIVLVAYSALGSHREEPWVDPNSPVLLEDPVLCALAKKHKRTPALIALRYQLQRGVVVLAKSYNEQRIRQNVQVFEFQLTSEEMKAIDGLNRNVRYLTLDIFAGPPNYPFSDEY
Method in brief: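 Sf-9-expressed enzyme (13.6 nM) incubated 45 min at 37 °C in 20 mM KH2PO4 pH 7.4 with 1 mM NADPH, 6.25 nM [3H]dihydrotestosterone and 10 μM compound (1% DMSO). After TCA stop, substrate and 5α-androstane-3α,17β-diol resolved by UPLC with radio-detection; inhibition from percent conversion.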

[3] = target: T3, 17β-Hydroxysteroid Dehydrogenase Type 2 Enzyme (17β-HSD2) (Homo sapiens, UniProt P37059); experiment: Inhibition of the 17β-hydroxysteroid dehydrogenase type 2 enzyme, 3H-testosterone conversion; conditions: inhibitor at 10 μM
T3 construct: made in house; host or cells: Sf-9 insect cells (baculovirus)
T3 sequence (P37059 1-387): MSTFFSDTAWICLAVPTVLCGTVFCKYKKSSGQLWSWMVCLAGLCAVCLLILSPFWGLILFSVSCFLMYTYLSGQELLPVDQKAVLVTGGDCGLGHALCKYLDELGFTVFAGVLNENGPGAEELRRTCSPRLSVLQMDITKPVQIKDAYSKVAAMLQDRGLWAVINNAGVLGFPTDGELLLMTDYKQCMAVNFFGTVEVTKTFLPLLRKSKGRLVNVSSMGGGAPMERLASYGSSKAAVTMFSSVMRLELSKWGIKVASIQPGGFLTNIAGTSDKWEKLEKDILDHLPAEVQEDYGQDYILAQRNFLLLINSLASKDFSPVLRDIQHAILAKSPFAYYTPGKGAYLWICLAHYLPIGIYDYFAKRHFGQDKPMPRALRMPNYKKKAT
Method in brief: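 Recombinant human 17β-HSD2 (Sf-9/baculovirus; 105 nM) incubated with 56.25 nM ³H-testosterone and 1 mM NAD in 20 mM KH2PO4 pH 8.5, 1 mM EDTA, 1% DMSO, 30 min at RT, inhibitor 10 μM. Reaction stopped with TCA; conversion to ³H-androstenedione by radio-UPLC gives percent inhibition.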

Compound	inhibition at 0.5 µM [1] [%]	inhibition at 10 µM [2] [%]	inhibition at 10 µM [3] [%]
N#CC(=C1CCN(C(=O)N2CCc3[nH]ncc3C2)CC1)c1ccc(Cl)s1 [Compound 120, 2-(5-chlorothiophen-2-yl)-2-(1-(4,5,6,7-tetrahydro-1H-pyrazolo[4,3-c]pyridine-5-carbonyl)piperidin-4-ylidene)acetonitrile]	99	43	20
N#CC(=C1CCN(C(=O)N2CCc3ccccc32)CC1)c1ccc(F)cc1 [Compound 102, 2-(4-fluorophenyl)-2-(1-(indoline-1-carbonyl)piperidin-4-ylidene)acetonitrile]	99	17	12
N#CC(=C1CCN(C(=O)N2CCn3cncc3C2)CC1)c1ccc(F)cc1 [Compound 27, 2-(4-fluorophenyl)-2-(1-(5,6,7,8-tetrahydroimidazo[1,5-a]pyrazine-7-carbonyl)piperidin-4-ylidene)acetonitrile]	98	16	7
N#CC(=C1CCN(C(=O)N2CCc3nocc3C2)CC1)c1cccc2[nH]ncc12 [Compound 138, 2-(1H-indazol-4-yl)-2-(1-(4,5,6,7-tetrahydroisoxazolo[4,3-c]pyridine-5-carbonyl)piperidin-4-ylidene)acetonitrile]	98	31	13
N#CC(=C1CCN(C(=O)N2CCc3[nH]ncc3C2)CC1)c1cccc2[nH]ncc12 [Compound 60, 2-(1H-indazol-4-yl)-2-(1-(4,5,6,7-tetrahydro-1H-pyrazolo[4,3-c]pyridine-5-carbonyl)piperidin-4-ylidene)acetonitrile]	98	9	29
N#CC(=C1CCN(C(=O)N2CCn3ncnc3C2)CC1)c1cc(F)cc(F)c1 [Compound 166, 2-(3,5-difluorophenyl)-2-(1-(5,6,7,8-tetrahydro-[1,2,4]triazolo[1,5-a]pyrazine-7-carbonyl)piperidin-4-ylidene)acetonitrile]	96	13	2
N#CC(=C1CCN(C(=O)N2CCc3sccc3C2)CC1)c1ccc(Cl)s1 [Compound 64, 2-(5-chlorothiophen-2-yl)-2-(1-(4,5,6,7-tetrahydrothieno[3,2-c]pyridine-5-carbonyl)piperidin-4-ylidene)acetonitrile]	99	19	28
N#CC(=C1CCN(C(=O)N2CCn3cncc3C2)CC1)c1cc(F)cc(F)c1 [Compound 52, 2-(3,5-difluorophenyl)-2-(1-(5,6,7,8-tetrahydroimidazo[1,5-a]pyrazine-7-carbonyl)piperidin-4-ylidene)acetonitrile]	97	19	13
N#CC(=C1CCN(C(=O)N2C3CCC2COC3)CC1)c1ccc(F)cc1 [Compound 15, 2-(1-(3-oxa-8-azabicyclo[3.2.1]octane-8-carbonyl)piperidin-4-ylidene)-2-(4-fluorophenyl)acetonitrile]	97	6	11
N#CC(=C1CCN(C(=O)N2CC(C#N)C2)CC1)c1ccc(F)cc1 [Compound 23, 1-(4-(cyano(4-fluorophenyl)methylene)piperidine-1-carbonyl)azetidine-3-carbonitrile]	96	13	1

Results, then the compound that gave them:

inhibition at 0.5 µM [1] [%]	inhibition at 10 µM [2] [%]	inhibition at 10 µM [3] [%]	Compound
92	14	-1	N#CC(=C1CCN(C(=O)N2CCCC(O)CC2)CC1)c1ccc(F)cc1 (stereo not drawn) [Compound 107, 2-(4-fluorophenyl)-2-(1-(4-hydroxyazepane-1-carbonyl)piperidin-4-ylidene)acetonitrile]
96	13	3	N#CC(=C1CCN(C(=O)N2CCC(O)CC2)CC1)c1ccc(Cl)s1 [Compound 57, 2-(5-chlorothiophen-2-yl)-2-(1-(4-hydroxypiperidine-1-carbonyl)piperidin-4-ylidene)acetonitrile]
97	16	23	CC(C)OC1CCN(C(=O)N2CCC(=C(C#N)c3ccc(Cl)cc3)CC2)CC1 [Compound 133, 2-(4-chlorophenyl)-2-(1-(4-isopropoxypiperidine-1-carbonyl)piperidin-4-ylidene)acetonitrile]
96	11	10	N#CC(=C1CCN(C(=O)N2CCC(O)CC2)CC1)c1ccc(F)cc1F [Compound 42, 2-(2,4-difluorophenyl)-2-(1-(4-hydroxypiperidine-1-carbonyl)piperidin-4-ylidene)acetonitrile]
99	29	22	N#CC(=C1CCN(C(=O)N2CCC(CO)CC2)CC1)c1ccc(Cl)s1 [Compound 63, 2-(5-chlorothiophen-2-yl)-2-(1-(4-(hydroxymethyl)piperidine-1-carbonyl)piperidin-4-ylidene)acetonitrile]
93	9	7	CC(=O)N1CCN(C(=O)N2CCC(=C(C#N)c3ccc(F)cc3)CC2)CC1 [Compound 143, 2-(1-(4-acetylpiperazine-1-carbonyl)piperidin-4-ylidene)-2-(4-fluorophenyl)acetonitrile]
96	7	7	N#CC(=C1CCN(C(=O)N2CCC(O)CC2)CC1)c1ccc(F)c(F)c1 [Compound 41, 2-(3,4-difluorophenyl)-2-(1-(4-hydroxypiperidine-1-carbonyl)piperidin-4-ylidene)acetonitrile]
97	2	2	N#CC(=C1CCN(C(=O)N2CCC(CO)CC2)CC1)c1ccc(Cl)cn1 [Compound 65, 2-(5-chloropyridin-2-yl)-2-(1-(4-(hydroxymethyl)piperidine-1-carbonyl)piperidin-4-ylidene)acetonitrile]
97	18	17	CCOC1CCN(C(=O)N2CCC(=C(C#N)c3ccc(Cl)s3)CC2)CC1 [Compound 125, 2-(5-chlorothiophen-2-yl)-2-(1-(4-ethoxypiperidine-1-carbonyl)piperidin-4-ylidene)acetonitrile]
90	11	14	N#CC(=C1CCN(C(=O)N2CC3CCCC3C2)CC1)c1ccc(F)cc1 (stereo not drawn) [Compound 101, 2-(4-fluorophenyl)-2-(1-(octahydrocyclopenta[c]pyrrole-2-carbonyl)piperidin-4-ylidene)acetonitrile]
94	22	25	N#CC(=C1CCN(C(=O)N2CCC(CCCO)CC2)CC1)c1cccc(Cl)c1 [Compound 95, 2-(3-chlorophenyl)-2-(1-(4-(3-hydroxypropyl)piperidine-1-carbonyl)piperidin-4-ylidene)acetonitrile]
